Laboratory results as given in patent US8022217B2, “Compounds suitable as modulators of HDL” (Cadila Healthcare Limited, priority 2006, dated 2011).
pIC50: −log10 of the molar value. Structures can show the parent of a compound that is named as a salt.

Experiments:
recombinant CETP [1] = target: T1, recombinant CETP (Homo sapiens, UniProt P11597); test: CETP in-vitro assay (Scintillation Proximity Assay, transfer of [3H] cholesteryl ester from HDL to biotinylated LDL); format: biochemical; conditions: for inhibition at 10 µM: 10 μmole concentration
T1 sequence (P11597 18-493): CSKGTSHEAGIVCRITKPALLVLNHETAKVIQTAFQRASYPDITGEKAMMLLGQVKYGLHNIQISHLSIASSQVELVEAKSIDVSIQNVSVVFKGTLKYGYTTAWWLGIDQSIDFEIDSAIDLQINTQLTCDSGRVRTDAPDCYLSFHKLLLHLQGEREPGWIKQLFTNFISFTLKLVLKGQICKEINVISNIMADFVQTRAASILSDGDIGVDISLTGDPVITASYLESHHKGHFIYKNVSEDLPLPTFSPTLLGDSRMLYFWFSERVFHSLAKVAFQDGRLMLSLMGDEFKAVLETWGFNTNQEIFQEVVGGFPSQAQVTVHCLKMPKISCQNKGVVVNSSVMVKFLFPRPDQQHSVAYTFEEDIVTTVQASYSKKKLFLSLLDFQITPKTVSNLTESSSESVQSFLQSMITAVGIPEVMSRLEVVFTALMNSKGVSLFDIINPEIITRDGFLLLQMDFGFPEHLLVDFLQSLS
Method: This assay used a commercially available Scintillation Proximity Assay kit (Amersham TRKQ7015) with modifications for measuring CETP activity. [^3H] Cholesteryl ester HDL was mixed with non radioactive HDL prepared from human plasma at an appropriate ratio in order to ensure a proper transfer of cholesteryl esters. Transfer of [^3H] Cholesteryl esters from high density lipoprotein (HDL) to biotinylated low density lipoprotein (LDL) was measured following incubation of donor and acceptor particles in the presence of recombinant CETP. Following overnight incubation, the reaction was terminated and transfer was measured in a single step addition of streptavidin coated beads formulated in an assay terminal buffer. The rate of increase in signal was proportional to the transfer of [^3H] Cholesteryl ester by CETP.

recombinant CETP [2] = target: T1, recombinant CETP; test: as above; format: biochemical; conditions: CETP inhibition in human plasma

Structure (SMILES)	inhibition at 10 µM (recombinant CETP [1]) [%]	pIC50 (recombinant CETP [2])	% of CETP inhibition at 10 μmole concentration (recombinant CETP [1]) [%]
COc1ccc(CCN(Cc2ccc(C(C)(C)C)cc2)C(=O)c2cccc3c2NCCC3)cc1OC [Compound 43, 1,2,3,4-Tetrahydro-quinoline-8-carboxylic acid (4-tert-butyl-benzyl)-[2-(3,4-dimethoxy-phenyl)-ethyl]-amide]	80	–	–
CC(C)(C)c1ccc(CN(CCc2ccccc2F)C(=O)c2cccc3c2NCCC3)cc1 [Compound 22, 1,2,3,4-Tetrahydro-quinoline-8-carboxylic acid (4-tert-butyl-benzyl)-[2-(2-fluoro-phenyl)-ethyl]-amide]	94	6.34	–
CC(C)(C)c1ccc(CN(CCc2ccc(Cl)c(Cl)c2)C(=O)c2cccc3c2NCCC3)cc1 [Compound 48, 1,2,3,4-Tetrahydro-quinoline-8-carboxylic acid (4-tert-butyl-benzyl)-[2-(3,4-dichloro-phenyl)-ethyl]-amide; hydrochloride salt]	79	–	–
CC(C)(C)c1ccc(CN(CCc2ccc(Cl)c(Cl)c2)C(=O)c2cc(F)cc3c2NCCC3)cc1.Cl [Compound 50, 6-Fluoro-1,2,3,4-tetrahydro-quinoline-8-carboxylic acid (4-tert-butyl-benzyl)-[2-(3,4-dichloro-phenyl)-ethyl]-amide; hydrochloride salt]	–	7.52	90
CC(C)(C)c1ccc(CN(CCc2ccc(Cl)c(F)c2)C(=O)c2cc(Cl)cc3c2NCCC3)cc1 [Compound 45, 6-Chloro-1,2,3,4-tetrahydro-quinoline-8-carboxylic acid (4-tert-butyl-benzyl)-[2-(4-chloro-3-fluoro-phenyl)-ethyl]-amide]	88	–	–
CC(C)(C)c1ccc(CN(CCc2ccc(Cl)c(Cl)c2)C(=O)c2cc(F)cc3c2NCCC3)cc1 [Compound 32, 6-Fluoro-1,2,3,4-tetrahydro-quinoline-8-carboxylic acid (4-tert-butyl-benzyl)-[2-(3,4-dichloro-phenyl)-ethyl]-amide]	82	–	–
CC(C)(C)c1ccc(CN(CCc2ccc(F)cc2)C(=O)c2cccc3c2NCCC3)cc1 [Compound 1, 1,2,3,4-Tetrahydro-quinoline-8-carboxylic acid (4-tert-butyl-benzyl)-(2-(4-fluoro-phenyl)-ethyl)-amide]	43	–	–
CC(C)(C)c1ccc(CN(CCc2ccc(O)cc2)C(=O)c2cccc3c2NCCC3)cc1 [Compound 42, 1,2,3,4-Tetrahydro-quinoline-8-carboxylic acid (4-tert-butyl-benzyl)-[2-(4-hydroxy-phenyl)-ethyl]-amide]	99	–	–
CC(C)(C)c1ccc(CN(CCc2ccc3c(c2)OCO3)C(=O)c2cccc3c2NCCC3)cc1 [Compound 38, 1,2,3,4-Tetrahydro-quinoline-8-carboxylic acid (2-benzo[1,3]dioxol-5-yl-ethyl)-(4-tert-butyl-benzyl)-amide]	78	–	–
Cc1ccc(CN(CCc2ccc(Cl)c(Cl)c2)C(=O)c2cccc3c2NCCC3)cc1 [Compound 29, 1,2,3,4-Tetrahydro-quinoline-8-carboxylic acid [2-(3,4-dichloro-phenyl)-ethyl]-(4-methyl-benzyl)-amide]	83	–	–
COc1ccc(CCN(Cc2ccc(C(C)(C)C)cc2)C(=O)c2cccc3c2NCCC3)cc1 [Compound 17, 1,2,3,4-Tetrahydro-quinoline-8-carboxylic acid (4-tert-butyl-benzyl)-[2-(4-methoxy-phenyl)-ethyl]-amide]	92	–	–

Results, then the compound that gave them:

inhibition at 10 µM (recombinant CETP [1]) [%]	pIC50 (recombinant CETP [2])	% of CETP inhibition at 10 μmole concentration (recombinant CETP [1]) [%]	Structure (SMILES)
85	–	–	CC(C)(C)c1ccc(CN(CCc2ccc(Cl)c(Cl)c2)C(=O)c2cc(Cl)cc3c2NCCC3)cc1 [Compound 35, 6-Chloro-1,2,3,4-tetrahydro-quinoline-8-carboxylic acid (4-tert-butyl-benzyl)-[2-(3,4-dichloro-phenyl)-ethyl]-amide]
82	–	–	Cc1cc2c(c(C(=O)N(CCc3ccc(Cl)c(Cl)c3)Cc3ccc(C(C)(C)C)cc3)c1)NCCC2 [Compound 31, 6-Methyl-1,2,3,4-tetrahydro-quinoline-8-carboxylic acid (4-tert-butyl-benzyl)-[2-(3,4-dichloro-phenyl)-ethyl]-amide]
67	–	–	CC(C)(C)c1ccc(CN(CCc2ccc(F)cc2)C(=O)c2ccc(Cl)c3c2NCCC3)cc1 [Compound 7, 5-Chloro-1,2,3,4-tetrahydro-quinoline-8-carboxylic acid (4-tert-butyl-benzyl)-[2-(4-fluoro-phenyl)-ethyl]-amide]
89	–	–	CC(C)(C)c1ccc(CN(CCc2ccc(F)c(F)c2)C(=O)c2cc(Cl)cc3c2NCCC3)cc1 [Compound 40, 6-Chloro-1,2,3,4-tetrahydro-quinoline-8-carboxylic acid (4-tert-butyl-benzyl)-[2-(3,4-difluoro-phenyl)-ethyl]-amide]
74	–	–	O=C(c1cccc2c1NCCC2)N(CCc1ccc(F)cc1)Cc1ccc(C(F)(F)F)cc1 [Compound 14, 1,2,3,4-Tetrahydro-quinoline-8-carboxylic acid [2-(4-fluoro-phenyl)-ethyl]-(4-trifluoromethyl-benzyl)-amide]
86	–	–	CC(C)(C)c1ccc(CN(CCc2cccc3ccccc23)C(=O)c2cccc3c2NCCC3)cc1 [Compound 37, 1,2,3,4-Tetrahydro-quinoline-8-carboxylic acid (4-tert-butyl-benzyl)-(2-naphthalen-1-yl-ethyl)-amide]
76	–	–	CC(C)(C)c1ccc(CN(CCc2ccc(F)cc2)C(=O)c2cc(F)cc3c2NCCC3)cc1 [Compound 24, 6-Fluoro-1,2,3,4-tetrahydro-quinoline-8-carboxylic acid (4-tert-butyl-benzyl)-[2-(4-fluoro-phenyl)-ethyl]-amide]
77	–	–	CC(C)(C)c1ccc(CN(Cc2cccc(Cl)c2)C(=O)c2cccc3c2NCCC3)cc1 [Compound 21, 1,2,3,4-Tetrahydro-quinoline-8-carboxylic acid (4-tert-butyl-benzyl)-(3-chloro-benzyl)-amide]
80	–	–	Cc1cc2c(c(C(=O)N(CCc3ccc(F)cc3)Cc3ccc(C(C)(C)C)cc3)c1)NCCC2 [Compound 13, 6-Methyl-1,2,3,4-tetrahydro-quinoline-8-carboxylic acid (4-tert-butyl-benzyl)-[2-(4-fluoro-phenyl)-ethyl]-amide]
76	6.78	–	CC(C)(C)c1ccc(CN(CCc2ccc(O[Si](C)(C)C)cc2)C(=O)c2cccc3c2NCCC3)cc1 [Compound 47, 1,2,3,4-Tetrahydro-quinoline-8-carboxylic acid (4-tert-butyl-benzyl)-[2-(4-trimethylsilanyloxy-phenyl)-ethyl]-amide]
57	–	–	CC(C)(C)c1ccc(CN(CCc2cccc(Cl)c2)C(=O)c2cccc3c2NCCC3)cc1 [Compound 10, 1,2,3,4-Tetrahydro-quinoline-8-carboxylic acid (4-tert-butyl-benzyl)-[2-(3-chloro-phenyl)-ethyl]-amide]
80	–	–	CCN(CC)c1ccc(CCN(Cc2ccc(C(C)(C)C)cc2)C(=O)c2cccc3c2NCCC3)cc1 [Compound 28, 1,2,3,4-Tetrahydro-quinoline-8-carboxylic acid (4-tert-butyl-benzyl)-[2-(4-diethylamino-phenyl)-ethyl]-amide]
